This note sets out measurements from ChEMBL document CHEMBL1145393, “Synthesis and antitumour activity of new tiazofurin analogues bearing a 2,3-anhydro functionality in the furanose ring” (Bioorg Med Chem Lett, 2007).

The structures appear in SMILES notation.

In experiment [1] the test system is K562. Nature of the experiment: Cytotoxicity against human K562 cells after 48 hrs by MTT assay. As to conditions: K562, 48 h. Format: cell-based. On the technique in general: Tetrazolium assays rely on reduction of a dye to a coloured formazan, in cell work by metabolically active cells.
In experiment [2] the test system is HL-60. Nature of the experiment: Cytotoxicity against human HL60 cell line after 48 hrs by MTT assay. The class given is cell-based. As to conditions: HL-60, 48 h.
The test system of experiment [3] is Jurkat. The experiment in a line: Cytotoxicity against human Jurkat T cells after 48 hrs by MTT assay. Format: cell-based.
Experiment [4] deals with Raji. Nature of the experiment: Cytotoxicity against human Raji cells after 48 hrs by MTT assay. The class given is cell-based.
For experiment [5], the system named is HT-29. Nature of the experiment: Cytotoxicity against human HT29 cell line after 48 hrs by MTT assay. Format: cell-based. As to conditions: HT-29, 48 h.
Experiment [6] deals with MCF7. The experiment in a line: Cytotoxicity against human MCF7 cell line after 48 hrs by MTT assay. As to conditions: MCF7, 48 h. Format: cell-based.
Experiment [7] relates to MRC5. The experiment in a line: Cytotoxicity against human MRC5 cell line after 48 hrs by MTT assay. The class given is functional, cell-based. The following applies: MRC5, 48 h.

The term IC50 denotes the concentration at which inhibition is half-maximal. Low values mean inhibition by little substance, high ones a need for much substance. With `NC(=O)c1csc(C[C@H]2O[C@H](CO)[C@H]3O[C@H]32)n1`, the IC50 is 90 nM in experiment [1]; greater than 100000 nM in experiment [2]; 11000 nM in experiment [3]; greater than 100000 nM in experiment [4]; 530 nM in experiment [5]; 10000 nM in experiment [6]. Further, the IC50 in experiment [7] is greater than 100000 nM.

Regarding `NC(=O)c1csc([C@@H]2O[C@H](CO)[C@@H](O)[C@H]2O)n1` [TIAZOFURIN], the IC50 was 1840 nM in experiment [2]; 510 nM in experiment [3]; 16100 nM in experiment [4]; 890 nM in experiment [5]; 6390 nM in experiment [6]; 490 nM in experiment [7].

With `NC(=O)c1csc(C[C@@H]2O[C@H](CO)[C@H]3O[C@H]32)n1`, the IC50 in experiment [1] came to 490 nM; in experiment [2] it was 3500 nM; in experiment [3], 2180 nM; in experiment [4] it was 70 nM; in experiment [5], 90 nM; in experiment [6], 9090 nM. This compound showed an IC50 in experiment [7] greater than 100000 nM.

`NC(=O)c1csc([C@@H]2O[C@H](CO)[C@H]3O[C@H]32)n1`: the IC50 in experiment [1] is 190 nM; in experiment [2], 2080 nM; in experiment [3], 4840 nM; in experiment [4], 540 nM; in experiment [5], greater than 100000 nM; in experiment [6], 960 nM. For the same compound, the IC50 in experiment [7] was greater than 100000 nM.
